Reference: US8350062B2, “Synthesis and anticancer activity of new actin-targeting small-molecule agents” (priority 2009, dated 2013)

What was measured:
Assay in all cases: NCI 60 cell line single dose screen
Assay type in all cases: cell-based, human
[1] = system: 786-0; details: 786-0 (Renal Cancer), 10 micromolar, 48 h
Text: (§1) Analog 10 was screened utilizing 60 different human tumor cell lines, representing leukemia, melanoma and cancers of the lung, colon, brain, ovary, breast, prostate, and kidney in order to show selective growth inhibition or cell killing of particular tumor cell lines. This screen is unique in that the complexity of a 60 cell line dose response produced by a given compound results in a biological response pattern which can be utilized in pattern recognition algorithms (COMPARE program. See: http://dtp.nci.nih.gov/docs/compare/compare.html). Using these algorithms, it is possible to assign a putative mechanism of action to a test compound, or to determine that the response pattern is unique and not similar to that of any of the standard prototype compounds included in the NCI database. In addition, following characterization of various cellular molecular targets in the 60 cell lines, it may be possible to select compounds most likely to interact with a specific molecular target.
(§2) The screening is a two-stage process, beginning with the evaluation of the compound against the 60 cell lines at a single dose of 10 uM.
(§3) The human tumor cell lines of the cancer screening panel are grown in RPMI 1640 medium containing 5% fetal bovine serum and 2 mM L-glutamine. For a typical screening experiment, cells are inoculated into 96 well microtiter plates in 100 μL at plating densities ranging from 5,000 to 40,000 cells/well depending on the doubling time of individual cell lines. After cell inoculation, the microtiter plates are incubated at 37° C., 5% CO2, 95% air and 100% relative humidity for 24 h prior to addition of experimental drug.
(§4) After 24 h, two plates of each cell line are fixed in situ with TCA, to represent a measurement of the cell population for each cell line at the time of drug addition (Tz). Experimental drugs are solubilized in dimethyl sulfoxide at 400-fold the desired final maximum test concentration and stored frozen prior to use. At the time of drug addition, an aliquot of frozen concentrate is thawed and diluted to twice the desired final maximum test concentration with complete medium containing 50 μg/ml gentamicin.
(§5) Following drug addition, the plates are incubated for an additional 48 h at 37° C., 5% CO2, 95% air, and 100% relative humidity. For adherent cells, the assay is terminated by the addition of cold TCA. Cells are fixed in situ by the gentle addition of […] of cold 50% (w/v) TCA (final concentration, 10% TCA) and incubated for 60 minutes at 4° C. The supernatant is discarded, and the plates are washed five times with tap water and air dried. Sulforhodamine B (SRB) solution (100 μl) at 0.4% (w/v) in 1% acetic acid is added to each well, and plates are incubated for 10 minutes at room temperature. After staining, unbound dye is removed by washing five times with 1% acetic acid and the plates are air dried. Bound stain is subsequently solubilized with 10 mM trizma base, and the absorbance is read on an automated plate reader at a wavelength of 515 nm. For suspension cells, the methodology is the same except that the assay is terminated by fixing settled cells at the bottom of the wells by gently adding 50 μl of 80% TCA (final concentration, 16% TCA). Using the absorbance measurements [time zero, (Tz), control growth, (C), and test growth in the presence of drug (Ti)], the percentage growth is calculated.

[2] = system: HS 578T; details: HS 578T (Breast Cancer), 10 micromolar, 48 h
Text: as §1, §2, §3, §4, §5

[3] = system: MALME-3M; details: MALME-3M (Melanoma), 10 micromolar, 48 h
Text: as §1, §2, §3, §4, §5

[4] = system: U251; details: U251 (CNS Cancer), 10 micromolar, 48 h
Text: as §1, §2, §3, §4, §5

[5] = system: NCI-H460; details: NCI-H460 (Non-Small Cell Lung Cancer), 10 micromolar, 48 h
Text: as §1, §2, §3, §4, §5

[6] = system: SF-268; details: SF-268 (CNS Cancer), 10 micromolar, 48 h
Text: as §1, §2, §3, §4, §5

[7] = system: HCC-2998; details: HCC-2998 (Colon Cancer), 10 micromolar, 48 h
Text: as §1, §2, §3, §4, §5

[8] = system: SK-OV-3; details: SK-OV-3 (Ovarian Cancer), 10 micromolar, 48 h
Text: as §1, §2, §3, §4, §5

[9] = system: HT29; details: HT29 (Colon Cancer), 10 micromolar, 48 h
Text: as §1, §2, §3, §4, §5

[10] = system: SK-MEL-2; details: SK-MEL-2 (Melanoma), 10 micromolar, 48 h
Text: as §1, §2, §3, §4, §5

[11] = system: UACC-62; details: UACC-62 (Melanoma), 10 micromolar, 48 h
Text: as §1, §2, §3, §4, §5

[12] = system: NCI/ADR-RES; details: NCI/ADR-RES (Ovarian Cancer), 10 micromolar, 48 h
Text: as §1, §2, §3, §4, §5

[13] = system: RXF 393; details: RXF 393 (Renal Cancer), 10 micromolar, 48 h
Text: as §1, §2, §3, §4, §5

[14] = system: DU-145; details: DU-145 (Prostate Cancer), 10 micromolar, 48 h
Text: as §1, §2, §3, §4, §5

[15] = system: HOP-62; details: HOP-62 (Non-Small Cell Lung Cancer), 10 micromolar, 48 h
Text: as §1, §2, §3, §4, §5

[16] = system: SK-MEL-28; details: SK-MEL-28 (Melanoma), 10 micromolar, 48 h
Text: as §1, §2, §3, §4, §5

[17] = system: SF-539; details: SF-539 (CNS Cancer), 10 micromolar, 48 h
Text: as §1, §2, §3, §4, §5

[18] = system: RPMI-8226; details: RPMI-8226 (Leukemia), 10 micromolar, 48 h
Text: as §1, §2, §3, §4, §5

[19] = system: OVCAR-8; details: OVCAR-8 (Ovarian Cancer), 10 micromolar, 48 h
Text: as §1, §2, §3, §4, §5

[20] = system: OVCAR-3; details: OVCAR-3 (Ovarian Cancer), 10 micromolar, 48 h
Text: as §1, §2, §3, §4, §5

[21] = system: T-47D; details: T-47D (Breast Cancer), 10 micromolar, 48 h
Text: as §1, §2, §3, §4, §5

[22] = system: OVCAR-4; details: OVCAR-4 (Ovarian Cancer), 10 micromolar, 48 h
Text: as §1, §2, §3, §4, §5

## COCCC(=O)NC[C@H](O)[C@H](C)C(=O)NCCC[C@H]1O[C@@]2(CCC[C@@H](CC[C@H](C)/C=C(\C)[C@H](C)O)O2)CCC1C (stereo partly shown) [Analog 10]
[1]
  Growth Percent: 50.94%
[2]
  Growth Percent: 46.51%
[3]
  Growth Percent: 72.36%
[4]
  Growth Percent: 50.08%
[5]
  Growth Percent: 48.25%
[6]
  Growth Percent: 37.08%
[7]
  Growth Percent: 66.34%
[8]
  Growth Percent: 59.10%
[9]
  Growth Percent: 30.53%
[10]
  Growth Percent: 53.99%
[11]
  Growth Percent: 48.46%
[12]
  Growth Percent: 88.16%
[13]
  Growth Percent: 26.83%
[14]
  Growth Percent: 54.89%
[15]
  Growth Percent: 40.92%
[16]
  Growth Percent: 71.16%
[17]
  Growth Percent: 40.64%
[18]
  Growth Percent: 58.70%
[19]
  Growth Percent: 90.22%
[20]
  Growth Percent: 83.59%
[21]
  Growth Percent: 71.80%
[22]
  Growth Percent: 45.16%
